Data taken from patent US10667516B2, “Use of 3-isoxazolidinones as selective herbicides in grass and Brassica crops” (FMC Corporation, priority 2011, dated 2020).

System: chickweed
Assay: Volatility evaluation (phytotoxic injury of chickweed by volatilization from treated soil)
Conditions: formulations containing the non-encapsulated compound
Text: Chickweed is very sensitive to clomazone and is a good indicator for bleaching compound volatility. […] These formulations are the reference standards against which the experimental formulations are compared. Four inch plastic pots were fitted with a basket style coffee filter, cut to size, placed in the bottom of each pot to cover the drainage holes and to stop soil from exiting the bottom of the pot. Each pot was filled with sandy loam soil that was sieved using a #10 mesh sieve to remove any large soil particles and debris. Filled soil pots were lightly watered prior to treatment application. The test solutions were applied to the soil surface using the DeVries Generation III sprayer, two replicates per test solution, at a rate of 0.25 g ai/ha. Each replicate test was set-up by placing an empty four inch plastic pot onto a greenhouse bench. Pots containing mature chickweed, about 2 inches in height, were placed around the empty pot in an eight spoke pattern. […] The untreated chickweed plants were evaluated for phytotoxic injury at 14 days after treatment. Volatility was evaluated by measuring the distance (cm) from the center of the treated soil pot to the distal point where bleaching effects were observed on each spoke. All eight spokes for each treatment were evaluated. The amount of volatility was determined by calculating the total square centimeters of phytotoxic injury per treatment. […]

| Structure (SMILES) | control of volatility compared to the non-encapsulated clomazone formulation |
| --- | --- |
| CC1(C)CON(Cc2ccc(Cl)cc2Cl)C1=O [2,4-Cl, 2-(2,4-dichlorophenyl)methyl-4,4-dimethyl-3-isoxazolidone] | significant control of volatility |
| CC1(C)CON(Cc2cc(Cl)ccc2Cl)C1=O [2,5-Cl, 2-(2,5-dichlorophenyl)methyl-4,4-dimethyl-3-isoxazolidone] | significant control of volatility |
